This is an account of results in US20250248922A1, “METHOD OF PREPARING A MASTOCARPUS STELLATUS EXTRACT” (GIVAUDAN SA, priority 2022, published 2025).

The assay deals with human mature adipocytes. The experiment in a line: Lipolytic activity: glycerol release by 3D culture of human mature adipocytes. In kind it is cell-based. Conditions: 72 h of treatment, extract 0.5%. Here is the method:
Mature adipocytes were isolated from subcutaneous adipose tissue after digestion by collagenase. The isolated adipocytes were washed with a wash buffer and encapsulated in a peptidic hydrogel to form 3D adipocytes capsules of 25 μl in size. The formation of adipocytes capsules followed an internal standardized protocol to have about the same number of adipocytes between the capsules. Cells were then incubated for 24 h at 37° C. for stabilization. Treatments with Mastocarpus stellatus extract at 0.5% were initiated at D0 with a medium change; and the culture media were changed every day until 4 days of culture. At each culture media change, the cells secretions were collected, centrifuged and frozen at-80° C. for further analysis. Each culture condition was done in triplicate. The culture media after 72 h of treatment were collected. The concentrations of adiponectin and glycerol were evaluated by ELISA and colorimetric assays, respectively, using specific kits according to the manufacture's recommendations (adiponectin kit, Duoset, DY1065, R&D Systems; Glycerol kit, Randox, GY105).

Each structure is given as a SMILES string.

With `CC(C)NCC(O)c1ccc(O)c(O)c1` (centres unmarked) [Isoproterenol], the “Glycerol release (% of untreated), average” value (isoproterenol 1 μM (positive control)) was 295.6 % of untreated. In addition, the “increase of glycerol release” value (isoproterenol 1 μM, vs untreated) is given as “+196%”.
